Activity calls are given as the source filed them. The rule behind the calls is not given here.
Columns and labels:
[1] = biological target: T1, Mitogen-activated protein kinase 10 (Homo sapiens, UniProt P53779); assay: Inhibition of recombinant human full-length JNK3 at 10 uM using ATF2 as substrate measured after 40 mins in presence of [gamma33P]ATP by scintillation counting analysis relative to control
[2] = biological target: T1, Mitogen-activated protein kinase 10; assay: Inhibition of recombinant human full-length JNK3 using ATF2 as substrate measured after 40 mins in presence of [gamma33P]ATP by scintillation counting analysis
[3] = biological target: Mitogen-activated protein kinase 9 (Homo sapiens, UniProt P45984); assay: Inhibition of human JNK2alpha2 using ATF2 as substrate measured after 40 mins in presence of [gamma33P]ATP by scintillation counting analysis
SH-SY5Y = assay: Effect on cell proliferation in human SH-SY5Y cells at 1 to 10 uM measured after 1 hr by MTT assay; format: ADME, cell-based
[4] = Toxicity in APPswe/PS1dE9 double mutant-transgenic mouse assessed as change in body weight at 15 to 30 mg/kg, ip administered once daily for 12 weeks and measured every week during compound dosing; format: organism-based; conditions: in vivo, 2016 h
[5] = Toxicity in APPswe/PS1dE9 double mutant-transgenic mouse model assessed as effect on swimming speed at 15 to 30 mg/kg, ip administered once daily for 12 weeks measured 48 hrs after training trial by morris water maze test; format: organism-based; conditions: in vivo
Mus musculus [6] = assay: Improvement in spatial memory impairment in ip dosed APPswe/PS1dE9 double mutant-transgenic mouse model assessed as decrease in number of diffused plaque in cortex administered once daily for 12 weeks measured post-last dose by thioflavin S staining-based fluorescence microscopic analysis; format: functional, organism-based
Mus musculus [7] = assay: (§1) Improvement in spatial memory impairment in ip dosed APPswe/PS1dE9 double mutant-transgenic mouse model assessed as decrease in area occupied by diffused plaque in cortex administered once daily for 12 weeks measured post-last dose by thioflavin S staining-based fluorescence microscopic analysis; format: functional, organism-based
Mus musculus [8] = assay: as §1, with “hippocampus” for “cortex”; format: functional, organism-based
Mus musculus [9] = assay: as §1, with “fibrillar” for “diffused”, “hippocampus” for “cortex”; format: functional, organism-based
Mus musculus [10] = assay: In vivo inhibition of JNK in APPswe/PS1dE9 double mutant-transgenic mouse model assessed as reduction in Tau phosphorylation at Ser235 residue in cortex at 30 mg/kg, ip administered once daily for 12 weeks measured post-last dose by Western blot analysis; format: functional, organism-based
Mus musculus [11] = assay: In vivo inhibition of JNK in APPswe/PS1dE9 double mutant-transgenic mouse model assessed as reduction in APP phosphorylation at Thr668 residue in hippocampus at 30 mg/kg, ip administered once daily for 12 weeks measured post-last dose by Western blot analysis; format: functional, organism-based
Mus musculus [12] = assay: In vivo inhibition of JNK in APPswe/PS1dE9 double mutant-transgenic mouse model assessed as reduction in Tau phosphorylation at Ser235 residue in hippocampus at 30 mg/kg, ip administered once daily for 12 weeks measured post-last dose by Western blot analysis; format: functional, organism-based
Mus musculus [13] = assay: In vivo inhibition of JNK in APPswe/PS1dE9 double mutant-transgenic mouse model assessed as reduction in Tau phosphorylation at Thr205 residue in hippocampus at 30 mg/kg, ip administered once daily for 12 weeks measured post-last dose by Western blot analysis; format: functional, organism-based
[14] = Terminal half life in APPswe/PS1dE9 double mutant-transgenic mouse at 3 mg/kg, iv administered as single dose by LC-MS/MS analysis; format: ADME, organism-based; conditions: in vivo, read-out: beta t1/2 (converted)
[15] = Cmax in APPswe/PS1dE9 double mutant-transgenic mouse at 3 mg/kg, iv administered as single dose by LC-MS/MS analysis; format: ADME, organism-based; design: dose 3 mg/kg, route intravenous; conditions: in vivo
[16] = Mean residence time in APPswe/PS1dE9 double mutant-transgenic mouse at 3 mg/kg, iv administered as single dose by LC-MS/MS analysis; format: ADME, organism-based; conditions: in vivo
[17] = Primary phase half life in APPswe/PS1dE9 double mutant-transgenic mouse at 30 mg/kg, ip administered as single dose by LC-MS/MS analysis; format: ADME, organism-based; conditions: in vivo, read-out: alphat1/2 (converted)
[18] = Mean residence time in APPswe/PS1dE9 double mutant-transgenic mouse at 30 mg/kg, ip administered as single dose by LC-MS/MS analysis; format: ADME, organism-based; conditions: in vivo
[19] = Bioavailability in APPswe/PS1dE9 double mutant-transgenic mouse at 30 mg/kg, ip administered as single dose by LC-MS/MS analysis; format: ADME, organism-based; conditions: in vivo
[20] = Plasma concentration in APPswe/PS1dE9 double mutant-transgenic mouse at 30 mg/kg, ip administered as single dose measured after 8 hrs by LC-MS/MS analysis; format: ADME, organism-based
[21] = Drug level in APPswe/PS1dE9 double mutant-transgenic mouse brain at 30 mg/kg, ip administered as single dose measured after 0.5 hrs by LC-MS/MS analysis; format: ADME, organism-based; conditions: read-out: Drug uptake
[22] = Ratio of drug level in APPswe/PS1dE9 double mutant-transgenic mouse brain to plasma at 30 mg/kg, ip administered as single dose measured after 2 hrs by LC-MS/MS analysis; format: ADME, organism-based; conditions: read-out: BPR
Mus musculus [23] = species: Mus musculus; conditions: 15 to 30 mg/kg
Description: In vivo inhibition of JNK in APPswe/PS1dE9 double mutant-transgenic mouse model assessed as increase in transformation of sAPPbeta to sAPPalpha by measuring reduction in sAPPbeta level at 15 to 30 mg/kg, ip administered once daily for 12 weeks measured post-last dose by Western blot analysis

T1 sequence (P53779 whole entry): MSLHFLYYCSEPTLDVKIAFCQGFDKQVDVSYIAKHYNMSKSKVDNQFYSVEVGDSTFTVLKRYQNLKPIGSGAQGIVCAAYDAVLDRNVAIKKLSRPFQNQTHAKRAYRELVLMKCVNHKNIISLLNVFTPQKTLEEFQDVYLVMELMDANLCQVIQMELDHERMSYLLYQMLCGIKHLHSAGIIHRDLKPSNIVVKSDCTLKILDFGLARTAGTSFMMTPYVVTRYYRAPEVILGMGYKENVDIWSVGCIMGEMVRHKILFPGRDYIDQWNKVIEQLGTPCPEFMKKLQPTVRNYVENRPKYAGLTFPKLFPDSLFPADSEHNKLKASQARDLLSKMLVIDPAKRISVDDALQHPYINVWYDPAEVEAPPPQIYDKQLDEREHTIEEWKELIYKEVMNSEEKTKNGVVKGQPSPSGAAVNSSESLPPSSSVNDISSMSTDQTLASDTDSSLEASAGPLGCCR
Sequence of Mitogen-activated protein kinase 9 (P45984 whole entry): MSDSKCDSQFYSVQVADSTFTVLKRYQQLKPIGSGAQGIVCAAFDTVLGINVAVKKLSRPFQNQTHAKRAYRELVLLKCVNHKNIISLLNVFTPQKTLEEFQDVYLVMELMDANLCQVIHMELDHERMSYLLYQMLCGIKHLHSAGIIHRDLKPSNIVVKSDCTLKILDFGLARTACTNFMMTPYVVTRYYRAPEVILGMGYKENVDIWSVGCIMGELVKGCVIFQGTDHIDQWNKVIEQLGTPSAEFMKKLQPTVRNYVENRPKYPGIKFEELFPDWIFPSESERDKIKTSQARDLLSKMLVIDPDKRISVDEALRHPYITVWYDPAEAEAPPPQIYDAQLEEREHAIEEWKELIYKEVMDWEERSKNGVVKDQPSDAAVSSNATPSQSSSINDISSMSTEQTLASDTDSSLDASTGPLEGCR

## O=C1N/C(=N/c2ccccc2Cl)S/C1=C1\C(=O)Nc2ccc(F)cc21
[1]
  inhibition: 99%
[2]
  IC50: 40 nM
[3]
  IC50: > 100000 nM
SH-SY5Y
  Activity: Non-Toxic
[4]
  Activity: Non-Toxic
[5]
  Activity: Non-Toxic
Mus musculus [6]
  Activity: Dose-dependent effect
Mus musculus [7]
  Activity: Dose-dependent effect
Mus musculus [8]
  Activity: Dose-dependent effect
Mus musculus [9]
  Activity: Dose-dependent effect
Mus musculus [10]
  inhibition: Active
Mus musculus [11]
  inhibition: Active
Mus musculus [12]
  inhibition: Active
Mus musculus [13]
  inhibition: Active
[14]
  half-life: 8.83 h
[15]
  Cmax: 4550 ng/mL
[16]
  MRT: 1.61 h
[17]
  half-life: 0.34 h
[18]
  MRT: 2.78 h
[19]
  bioavailability: 90.5%
[20]
  concentration at 8 h: 78.1 ng/mL
[21]
  concentration at 0.5 h: 51.4 ng/g
[22]
  Kp at 2 h: 0.135
Mus musculus [23]
  inhibition: Active

Source: ChEMBL document CHEMBL4359842 (J Med Chem, 2019)
